Literature values as cited in US20220346436A1, “ORALLY DISSOLVING FILMS” (NICOVENTURES TRADING LIMITED, priority 2021, published 2022).

Assays:
[1] = water / aqueous environment (e.g., saliva)
[2] = when isolated; isomerises to trans-bixin

CC(/C=C/C=C(C)/C=C/C(=O)O)=C\C=C\C=C(C)\C=C\C=C(C)\C=C\C(=O)O (stereo in doubt) [norbixin, (2E,4E,6E,8E,10E,12E,14E,16E,18E)-4,8,13,17-tetramethylicosa-2,4,6,8,10,12,14,16,18-nonaenedioic acid]
solubility [1]: water soluble

C=C(C)[C@@H]1CCC(C)=C[C@H]1c1c(O)cc(CCCCC)cc1O [CBD, cannabidiol, reference compound]
logP value: about 6.5
solubility [1]: insoluble in an aqueous environment

COC(=O)/C=C/C(C)=C\C=C\C(C)=C\C=C\C=C(C)\C=C\C=C(C)\C=C\C(=O)O [bixin, (2E,4E,6E,8E,10E,12E,14E,16Z,18E)-20-methoxy-4,8,13,17-tetramethyl-20-oxoicosa-2,4,6,8,10,12,14,16,18-nonaenoic acid]
solubility [1]: insoluble in water
chemical stability [2]: chemically unstable when isolated
